In the NIST ThermoML archive (doi:10.1007/s10765-005-5570-x):
“And” between values parts separate entries of the source, which are not always exact repeats. Equal values may be shown once.

Key:
[1] = Liquid
[2] = xn = mol fraction of the nth substance listed; conditions: 101.33 kPa, Liquid, x2 = 0

CCOC(C)=O [ethyl acetate]
[1]
Conditions | mass density
288.15 K, 101.33 kPa | 906.71 kg/m3
298.15 K, 101.33 kPa | 894.97 kg/m3
298.15 K, 200 kPa | 894.2 kg/m3
298.15 K, 600 kPa | 894.65 kg/m3
298.15 K, 1100 kPa | 895.18 kg/m3
298.15 K, 2100 kPa | 896.14 kg/m3
298.15 K, 2900 kPa | 897.1 kg/m3
298.15 K, 4000 kPa | 898.2 kg/m3
298.15 K, 5100 kPa | 899.22 kg/m3
298.15 K, 6000 kPa | 900.19 kg/m3
298.15 K, 7000 kPa | 901.11 kg/m3
298.15 K, 8000 kPa | 902.12 kg/m3
298.15 K, 8900 kPa | 902.88 kg/m3
298.15 K, 9900 kPa | 903.88 kg/m3
298.15 K, 11700 kPa | 905.54 kg/m3
298.15 K, 13800 kPa | 907.54 kg/m3
298.15 K, 16000 kPa | 909.45 kg/m3
298.15 K, 17600 kPa | 910.84 kg/m3
298.15 K, 19500 kPa | 912.59 kg/m3
308.15 K, 101.33 kPa | 882.27 kg/m3 and 881.87 kg/m3

CCOC(C)=O [ethyl acetate] + BrCBr
[2]
Conditions | mass density [kg/m3]
288.15 K | 906.71
298.15 K | 894.97
308.15 K | 882.27

ClCCBr [1-bromo-2-chloroethane]
[1]
Conditions | mass density [kg/m3]
288.15 K, 101.33 kPa | 1744.36
298.15 K, 101.33 kPa | 1727.88
298.15 K, 200 kPa | 1726.08
298.15 K, 500 kPa | 1726.48
298.15 K, 900 kPa | 1726.94
298.15 K, 2000 kPa | 1728.17
298.15 K, 2900 kPa | 1729.14
298.15 K, 4100 kPa | 1730.57
298.15 K, 4800 kPa | 1731.35
298.15 K, 6000 kPa | 1732.77
298.15 K, 6800 kPa | 1733.74
298.15 K, 8000 kPa | 1735.1
298.15 K, 8700 kPa | 1736.13
298.15 K, 9600 kPa | 1737.17
298.15 K, 11700 kPa | 1739.6
298.15 K, 13900 kPa | 1742.49
298.15 K, 15600 kPa | 1744.52
298.15 K, 17600 kPa | 1747.12
298.15 K, 19400 kPa | 1749.48
308.15 K, 101.33 kPa | 1708.86

CCOC(C)=O [ethyl acetate] + ClCCBr
[2]
Conditions | mass density [kg/m3]
288.15 K | 906.71
298.15 K | 894.97
308.15 K | 882.27

CCOC(C)=O [ethyl acetate] + ClCBr
[2]
Conditions | mass density [kg/m3]
288.15 K | 906.71
298.15 K | 894.97
308.15 K | 881.87

CCOC(C)=O [ethyl acetate] + ClCCCl
[2]
Conditions | mass density [kg/m3]
288.15 K | 906.71
298.15 K | 894.97
308.15 K | 882.27

ClCBr [bromochloromethane]
[1]
Conditions | mass density [kg/m3]
288.15 K, 101.33 kPa | 1945.94
298.15 K, 101.33 kPa | 1924.88
298.15 K, 200 kPa | 1923.54
298.15 K, 500 kPa | 1923.88
298.15 K, 1000 kPa | 1924.64
298.15 K, 2100 kPa | 1926.24
298.15 K, 2900 kPa | 1927.62
298.15 K, 3800 kPa | 1928.77
298.15 K, 4900 kPa | 1930.51
298.15 K, 5900 kPa | 1932.03
298.15 K, 7000 kPa | 1933.43
298.15 K, 8000 kPa | 1934.88
298.15 K, 8800 kPa | 1936.36
298.15 K, 9800 kPa | 1937.83
298.15 K, 11800 kPa | 1940.79
298.15 K, 13900 kPa | 1944.25
298.15 K, 15700 kPa | 1947.01
298.15 K, 17800 kPa | 1950.26
298.15 K, 19600 kPa | 1953.16
308.15 K, 101.33 kPa | 1900.86

BrCBr [dibromomethane]
[1]
Conditions | mass density [kg/m3]
288.15 K, 101.33 kPa | 2501.88
298.15 K, 101.33 kPa | 2478.37
298.15 K, 200 kPa | 2477.56
298.15 K, 300 kPa | 2477.92
298.15 K, 600 kPa | 2478.35
298.15 K, 1000 kPa | 2478.9
298.15 K, 2100 kPa | 2480.41
298.15 K, 3000 kPa | 2481.88
298.15 K, 4100 kPa | 2483.5
298.15 K, 5000 kPa | 2484.84
298.15 K, 5900 kPa | 2486.26
298.15 K, 6900 kPa | 2487.82
298.15 K, 8000 kPa | 2489.54
298.15 K, 8800 kPa | 2490.92
298.15 K, 9800 kPa | 2492.58
298.15 K, 11800 kPa | 2494.98
298.15 K, 13700 kPa | 2498.59
298.15 K, 15800 kPa | 2502.33
298.15 K, 15900 kPa | 2502.49
298.15 K, 17700 kPa | 2505.74
298.15 K, 19200 kPa | 2508.69
298.15 K, 19300 kPa | 2508.84
308.15 K, 101.33 kPa | 2451.74

ClCCCl [1,2-dichloroethane]
[1]
Conditions | mass density [kg/m3]
288.15 K, 101.33 kPa | 1260.13
298.15 K, 101.33 kPa | 1246.59
298.15 K, 200 kPa | 1245.68
298.15 K, 500 kPa | 1246.02
298.15 K, 1100 kPa | 1246.54
298.15 K, 2000 kPa | 1247.41
298.15 K, 3100 kPa | 1248.51
298.15 K, 4100 kPa | 1249.53
298.15 K, 5100 kPa | 1250.32
298.15 K, 6100 kPa | 1251.22
298.15 K, 7100 kPa | 1252.27
298.15 K, 8000 kPa | 1253.07
298.15 K, 8900 kPa | 1254
298.15 K, 10100 kPa | 1255.18
298.15 K, 12000 kPa | 1256.96
298.15 K, 13900 kPa | 1258.84
298.15 K, 15700 kPa | 1260.48
298.15 K, 17700 kPa | 1262.37
298.15 K, 19700 kPa | 1264.29
308.15 K, 101.33 kPa | 1231.27
